Several values for one entry are separate records, joined by “and”; a condition that tells them apart may be missing. Equal values may be shown once. Activity calls are given as the source filed them.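 How the source made its calls: active means compounds giving half or more protection of infected cells from virus-caused growth loss, again on retest; inactive means the rest.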
Test system: CEM cells HIV-1 protection, formazan growth assay
Assay: NCI AIDS Antiviral Assay
Details: for IC50: measured here: growth of uninfected CEM cells
In short: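 Human CEM cells, uninfected and HIV-1-infected, exposed to five drug concentrations; growth measured by soluble formazan assay and scored as percent protection from infection, with protecting compounds retested.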

Compound	outcome	EC50 [µM]	IC50
CCOC(=O)C1=C(O)CSC1=Nc1ccccc1	inactive	–	–
COC(=O)c1cc2cccc(CS(=O)(=O)O)c2cc1O	–	> 200	21.4 µM
CC#COS(=O)(=O)c1ccc(C)cc1	–	> 251	110 µM
O=c1nc2c(c(-c3ccc(Br)cc3)[nH]1)COC/C2=C\c1ccc(Br)cc1	–	> 200	75.9 µM
COC1/C=C/OC2(C)Oc3c(C)c(OC(C)=O)c4c(c3C2=O)C(=O)C=C(NC(=O)/C(C)=C\C=C\C(C)C(O)C(C)C(O)C(C)C(OC(C)=O)C1C)C4=O (stereo unspecified)	–	> 200	5.89 µM
COC(=O)/C(=N\NC(C)(C)C)C(C(=O)OC)C(=O)C(=O)Nc1cc(Cl)ccc1Cl (stereo unspecified)	inactive	–	–
CCCCCC(=O)c1c(O)cc2c(c1O)C(=O)c1c(O)cc(O)cc1C2=O	–	> 200	56.2 µM
CC1=CC(O)C(C(O)(C(F)(F)F)C(F)(F)F)C(C)(C)C1 (stereo unspecified)	–	> 200	178 µM
COc1cccc(/C=N/[N-]C(N)=O)c1[O-].[Cu+2].[OH3+]	–	> 64.6	10.5 µM
COP(=O)(CCC1OCCO1)OC	–	> 200	> 200 µM
COC(=O)c1cc(C(CCl)c2cc(C(=O)OC)c(O)cc2C)c(C)cc1O	–	> 200	112 µM
COc1cc(-c2[nH]ncc2CCCC(=O)Nc2ccccc2[N+](=O)[O-])ccc1O	inactive	–	–
NCC(O)c1ccc(Nc2ccnc3cc(Cl)ccc23)cc1 (stereo unspecified)	–	> 93.3	38 µM
Cc1ccc(S(=O)(=O)NC(=O)NC2=NC(C)(C)N(c3ccc(Cl)c(Cl)c3)C(N)=N2)cc1	–	> 200	4.27 µM
COC(=O)c1c(C)cccc1/C=C1/Cc2c(C)cccc2C1=O	–	> 200	> 200 µM
Nc1cnc(N2CCN(c3ncc(N)cc3N)CC2)c(N)c1	–	> 95.5	77.6 µM
C=C(C)Cn1c(=O)n(CC(=C)C)c(=O)n(CC(=C)C)c1=O	–	> 200	81.3 µM
Cc1ccc(S(=O)(=O)c2c(C)cc(C)cc2C)cc1	–	> 200	12.6 µM
O=C(CNc1ccccn1)Nn1cnc2ccc(S(=O)(=O)Nc3ccccn3)cc2c1=O	–	> 200	> 200 µM
O=C1/C(=C/c2ccc(O)cc2)CCCC1CN1CCCCC1 (stereo unspecified)	–	> 2	1.86 µM
COc1ccc2nc3c([N+](=O)[O-])ccc(NCCCN(C)C)c3c(N)c2c1	–	> 200	0.195 µM
CC(C)=C=CC(C)(C)NS(=O)(=O)NC(C)(C)C=C=C(C)C	–	> 200	105 µM

Compound	outcome	EC50 [µM]	IC50
CC(=O)COP(=O)(OCC(C)=O)OCC1OC(n2cc(C)c(=O)[nH]c2=O)CC1N=[N+]=[N-] (stereo unspecified)	–	0.000631	2 µM
CCOC(=O)OC1(c2ccccc2)CCN(C)CC1	–	> 200	> 200 µM
COC(=O)c1nc(N)nc(C(=O)OC)c1C(=O)/C=C/c1ccccc1	–	> 741	324 µM
C[C@]12C=CC(=O)C=C1CC[C@@H]1[C@@H]2CC[C@]2(C)OC(=O)CC[C@@H]12	–	> 832	224 µM
O=C(O)C(CSC(c1ccccc1)(c1ccccc1)c1ccccc1)N=Cc1cccs1 (stereo unspecified)	–	> 200	2.04 µM
C#CC1(O)CCC2[C@@H]3CCc4cc(Oc5nc(F)nc(-c6c7ccccc7cn6C)n5)ccc4C3CC[C@@]21C (stereo partly specified)	–	> 10	> 10 µM
O=C1OC(C2Cc3ccc4c(c3C2=O)CCC4)c2ccccc21 (stereo unspecified)	–	> 200	81.3 µM
Nc1ccc(/C=C/c2ccc(NCc3c(O)cc(O)cc3C(=O)O)cc2S(=O)(=O)O)c(S(=O)(=O)O)c1	–	107	> 200 µM
CCOC(=O)C(CCCCS(=O)(=O)O)C(=O)OCC	–	> 200	> 200 µM
CCOC(=O)/C=C/c1cccc(C#N)c1	–	> 178	87.1 µM
O=[N+]([O-])c1ccc2c(c1)NC(O)C(O)N2 (stereo unspecified)	–	> 200	174 µM
COc1ccccc1S(=O)(=O)Sc1ccccc1[N+](=O)[O-]	–	> 81.3	25.7 µM
N#Cc1c(-c2ccccc2)[nH]c(=O)n(C2OC(CO)C(O)C(O)C2O)c1=O (stereo unspecified)	inactive	> 200	> 200 µM
CCSC(SCC)C(O)C(O)C(O)C(O)C(O)C(O)CO (stereo unspecified)	inactive	–	–
Cc1cc(C)nc(NS(=O)(=O)c2ccc(N=c3c4ccccc4n(-c4ccccc4)c4ccccc34)cc2)n1	inactive	–	–
CSc1c2c([nH]c(=O)c1C#N)-c1ccccc1CC2	–	> 200	166 µM
CC(C)=CCC12Cc3ccc(O)cc3C(C(C)CN1)C2C (stereo unspecified)	–	> 200	> 200 µM
COc1cc2ccc(CC#N)cc2cc1OC	inactive	–	–
O=C1C2ON3c4ccccc4C(=O)C3(c3ccccc3)C2C(=O)N1c1ccccc1 (stereo unspecified)	–	> 18.2	> 18.2 µM
CC(C)(C)OC(=O)NCCC1SC2C=CC1C2 (stereo unspecified)	–	> 200	107 µM
O=C1c2scc(-c3ccc(Cl)cc3)c2-n2cccc21	–	> 200	> 200 µM
CN(C)c1nc2oc(-c3ccccc3)c(-c3ccccc3)c2c2nncn12	–	> 151	> 151 µM

Compound	outcome	EC50 [µM]	IC50
COc1ccc(-n2c(N)c(C#N)c(C#N)c2-c2ccccc2)cc1	–	> 200	12 µM
O=C(O)CCC(=O)NNC(=O)CCC(=O)O	–	> 155	> 155 µM
O=C(O)C1CCC(=O)N1S(=O)(=O)c1ccccc1 (stereo unspecified)	inactive	–	–
N#CC1(c2ccccc2)CCOCC1	–	> 501	> 501 µM
CCOC(=O)N1CCC2C(=C(C)C(C)C3=C2C(=O)c2ccccc2C3=O)C1 (stereo unspecified)	–	> 100	> 100 µM
O=C(Oc1ccc(OC(Oc2ccccc2)c2ccccc2)cc1)c1ccccc1 (stereo unspecified)	–	> 200	44.7 µM
CC1(C)[C@@H]2C[C@H]1c1cnc(-c3ccccn3)cc1[C@H]2C(O)[C@@H]1c2cc(-c3ccccn3)ncc2[C@H]2C[C@@H]1C2(C)C (stereo partly specified)	–	> 5.01	0.295 µM
CCC(=O)CCCC=C(c1cc(Cl)c(OC)c(C(=O)OC)c1)c1cc(Cl)c(OC)c(C(=O)OC)c1	–	1.45	40.7 µM
COc1ccc(OC)c2c(OC)cc(C)cc12	–	> 200	89.1 µM
Cn1ncc(NCCn2cnc3c2c(=O)n(C)c(=O)n3C)c(Cl)c1=O	–	> 200	> 200 µM
CCC/[N+]([O-])=C/c1ccc([N+](=O)[O-])o1	inactive	–	–
Cc1cc(NS(=O)(=O)c2ccc(N=Nc3c(N)n(C)c(=O)n(C)c3=O)cc2)nc(C)n1	–	> 200	> 200 µM
CC1=C(C)C(=O)C(C2=C(C3=CC(=O)C(C)=C(C)C3=O)C(=O)C(C)=C(C)C2=O)=CC1=O	–	> 20	1.02 µM
COC12OCC(OC1OCc1ccccc1)C1OC(C)(C)OC12 (stereo unspecified)	–	> 200	105 µM
S=c1sc2c(s1)SCCCCSCCCCSc1sc(=S)sc1SCCCCSCCCCS2	–	> 200	> 200 µM
CN(C)CCOC1(Cc2ccc(F)cc2)CCC(C(C)(C)C)CC1 (stereo unspecified)	–	> 200	3.89 µM and 3.98 µM
Nc1nnnn1CCCl	–	> 200	> 200 µM
CC1CCOc2ccc(cc2)C=Nc2ccc(cc2)CCc2ccc(cc2)N=Cc2ccc(cc2)OCC1 (stereo unspecified)	–	> 200	> 200 µM
NCCC1C2CC3CC(C2)CC1C3 (stereo unspecified)	inactive	–	–
NCCC1([N+](=O)[O-])C=CN=CC1 (stereo unspecified)	inactive	–	–
CSc1nc(N)c2c(n1)N(C)C=NS2(=O)=O	–	> 28.2	> 28.2 µM
